Activity calls are given as the source filed them. The rule behind the calls is not given here.
How the values were obtained:
[1] = Inhibition of HIV1 RNase H by FRET assay; parameters: species or system Human immunodeficiency virus 1
[2] = Inhibition of HIV2 RNase H by FRET assay; parameters: species or system Human immunodeficiency virus 2
[3] = Inhibition of human RNase H by FRET assay
Escherichia coli = assay: Inhibition of Escherichia coli RNase H at 10 uM by FRET assay

IC50 [1]: 240 nM | IC50 [2]: 130 nM | IC50 [3]: 1500 nM | Activity (Escherichia coli): inactive
Structure (SMILES): O=C(OC[C@H](OC(=O)c1cc(O)c(O)c(O)c1)C(O)(COC(=O)c1cc(O)c(O)c(O)c1)COC(=O)c1cc(O)c(O)c(O)c1)c1cc(O)c(O)c(O)c1

— ChEMBL document CHEMBL1141326, “An HIV RNase H inhibitory 1,3,4,5-tetragalloylapiitol from the African plant Hylodendron gabunensis” (J Nat Prod, 2007)
